{"source": "patent US7173004B2", "about": "“Macrocyclic isoquinoline peptide inhibitors of hepatitis C virus” (Bristol-Myers Squibb Company, priority 2003, dated 2007)", "key": {"[1]": {"conditions": "from C=CCCCSC[C@@H](NC(=O)OC(C)(C)C)C(=O)N1C[C@H](Oc2nccc3cc(OC)ccc23)C[C@H]1C(=O)N[C@]1(C(=O)OCC)C[C@H]1C=C; rcm bond; Grubbs II (tricyclohexylphosphine[1,3-bis(2,4,6-trimethylphenyl)-4,5-dihydroimidazol-2-ylidene][benzylidene]ruthenium(IV) dichloride); 1,2-dichloroethane; 3.48 mM; 83.0 °C; 16.0 h"}, "[2]": {"target": "T1, HCV NS3/4A protease complex, BMS strain (genotype 1a) (UniProt P27958, C1454S/C1711G, species not given/STRAIN_BMS)", "T1 construct": "b1001: DNA encoding the recombinant HCV NS3/4A protease complex (amino acids 1027 to 1711) ... a three-lysine solubilizing tail was added at the 3′-end of the NS4A coding region; fused on or other part: Three-lysine solubilising tail at the C-terminus of NS4A; A His tag is implied by the pET21b vector and Ni-NTA purification", "test": "Recombinant HCV NS3/4A protease complex FRET peptide assay, BMS strain", "format": "biochemical", "conditions": "NS3/4A BMS Strain; activity range classes", "text": "Recombinant HCV NS3/4A Protease Complex FRET Peptide Assay\nThe purpose of this in vitro assay was to measure the inhibition of HCV NS3 protease complexes, derived from the BMS strain, H77C strain or J416S strain, as described below, by compounds of the present invention. This assay provides an indication of how effective compounds of the present invention would be in inhibiting HCV proteolytic activity.\nSerum from an HCV-infected patient was obtained from Dr. T. Wright, San Francisco Hospital. An engineered full-length cDNA (compliment deoxyribonucleic acid) template of the HCV genome (BMS strain) was constructed from DNA fragments obtained by reverse transcription-PCR (RT-PCR) of serum RNA (ribonucleic acid) and using primers selected on the basis of homology between other genotype 1a strains. From the determination of the entire genome sequence, a genotype 1a was assigned to the HCV isolate according to the classification of Simmonds et al. (See P Simmonds, K A Rose, S Graham, S W Chan, F McOmish, B C Dow, E A Follett, P L Yap and H Marsden, J. Clin. Microbiol., 31(6), 1493–1503 (1993)). […] The infectious clones, H77C (1a genotype) and J4L6S (1b genotype) were obtained from R. Purcell (NIH) and the sequences are published in Genbank (AAB67036, see Yanagi, M., Purcell, R. H., Emerson, S. U. and Bukh, J. Proc. Natl. Acad. Sci. U.S.A. 94(16), 8738–8743 (1997); AF054247, see Yanagi, M., St Claire, M., Shapiro, M., Emerson, S. U., Purcell, R. H. and Bukh, J, Virology 244 (1), 161–172. (1998)).\nThe H77C and J4L6S strains were used for production of recombinant NS3/4A protease complexes. DNA encoding the recombinant HCV NS3/4A protease complex (amino acids 1027 to 1711) for these strains were manipulated as described by P. Gallinari et al. (see Gallinari P, Paolini C, Brennan D, Nardi C, Steinkuhler C, De Francesco R. Biochemistry. 38(17):5620–32, (1999)). Briefly, a three-lysine solubilizing tail was added at the 3′-end of the NS4A coding region. The cysteine in the P1 position of the NS4A-NS4B cleavage site (amino acid 1711) was changed to a glycine to avoid the proteolytic cleavage of the lysine tag. Furthermore, a cysteine to serine mutation was introduced by PCR at amino acid position 1454 to prevent the autolytic cleavage in the NS3 helicase domain. The variant DNA fragment was cloned in the pET21b bacterial expression vector (Novagen) and the NS3/4A complex was expressed in Escherichia coli strain BL21 (DE3) (Invitrogen) following the protocol described by P. Gallinari et al. (see Gallinari P, Brennan D, Nardi C, Brunetti M, Tomei L, Steinkuhler C, De Francesco R., J. Virol. 72(8):6758–69 (1998)) with modifications. Briefly, NS3/4A expression was induced with 0.5 mM Isopropyl β-D-1-thiogalactopyranoside (IPTG) for 22 hr at 20° C. A typical fermentation (10 L) yielded approximately 80 g of wet cell paste. The cells were resuspended in lysis buffer (10 mL/g) consisting of 25 mM N-(2-Hydroxyethyl)piperazine-N′-(2-Ethane Sulfonic acid) (HEPES), pH7.5, 20% glycerol, 500 mM Sodium Chloride (NaCl), 0.5% Triton-X100, 1 microgram/milliliter (“μg/mL”) lysozyme, 5 mM Magnesium Chloride (MgCl2), 1 ug/ml DnaseI, 5 mM β-Mercaptoethanol (βME), Protease inhibitor—Ethylenediamine Tetraacetic acid (EDTA) free (Roche), homogenized and incubated for 20 mins at 4° C. The homogenate was sonicated and clarified by ultra-centrifugation at 235000 g for 1 hr at 4° C. Imidazole was added to the supernatant to a final concentration of 15 mM and the pH adjusted to 8.0. The crude protein extract was loaded on a Nickel-Nitrilotriacetic acid (Ni-NTA) column pre-equilibrated with buffer B (25 mM HEPES, pH8.0, 20% glycerol, 500 mM NaCl, 0.5% Triton-X100, 15 mM imidazole, 5 mM βME). The sample was loaded at a flow rate of 1 mL/min. The column was washed with 15 column volumes of buffer C (same as buffer B except with 0.2% Triton-X100). The protein was eluted with 5 column volumes of buffer D (same as buffer C except with 200 mM Imidazole). […]"}, "HCV replicon [3]": {"system": "HCV replicon", "test": "Two-drug combination matrix studies in HCV replicon system, Universal Response Surface Approach (URSA)", "format": "cell-based", "conditions": "Hepatitis C virus, matrix study with NS5A inhibitor, URSA estimate (Table 10)", "procedure": "In addition to the combination index approach, above, the Universal Response Surface Approach (URSA) was also used to assess the antiviral effects of combinations of NS5A or NS5B inhibitors with the NS3 protease inhibitor. The experiments were conducted in a matrixed format with 8 concentrations of NS3 protease inhibitor crossed against 10 concentrations of NS5A or NS5B inhibitor on each of three plates. 200× stock solutions of each inhibitor concentration were prepared by 3-fold dilution in DMSO. Effects on replication were assessed in the HCV replicon system as described above. The data was analyzed using the URSA as described in Greco, Park and Rustum (Greco, Park, Sook, and Rustum (1990) Application of a New Approach for the Quantitation of Drug Synergism to the Combination of cis-Diamminedichloroplatinum and 1-β-D-Arabinofuranosylcytosine, Cancer Research, 50, 5318–5327). The interaction of the two drugs was assessed by using non-linear regression with a bisection algorithm. Seven parameters were estimated. These include the minimal response or response in the absence of drug, the maximal response or response in the presence of infinite drug, EC50's for the two drugs, slope parameters for the two drugs, and the drug interaction parameter α which provides the assessment of synergism, antagonism or additivity. Additivity is implied when α is equal to zero, synergy if the interaction parameter is larger than zero, and antagonism when the interaction parameter is less than zero. The confidence interval for the interaction parameter is also presented. This interval is used to test for departure from additivity by comparing the bounds to zero—a lower bound of the interval greater than zero indicates synergy, an upper bound of less than zero indicates antagonism, and a value of zero contained in the interval indicates additivity."}, "HCV replicon [4]": {"system": "HCV replicon", "test": "Three-drug combination studies in HCV replicon system, combination index", "format": "cell-based", "conditions": "mono-therapy in the three-drug combination experiment, HCV replicon, read-out: NS5A inhibitor EC50", "procedure": "[…] an NS5B replicase inhibitor (compound 2006; WO 03/010141), were tested in 2-drug combinations with the macrocyclic HCV NS3 protease inhibitor compound 28. In addition, compound 28 was also tested in 3-drug combinations with the NS5A and NS5B inhibitors.\nFor the experiments shown in Tables 8 and 9, inhibitors were tested at eleven concentrations each. 200× stock solutions of each inhibitor concentration were prepared by 2- or 3-fold dilution in DMSO prior to addition to cells/media. The drugs were tested as monotherapies and in combination with the NS3 protease inhibitor at various concentration ratios. Cells were exposed to compounds for 4 days and the amount of HCV inhibition was then determined using the FRET assay. The potential cytotoxicities of these combined agents were also analyzed in parallel by Alamar Blue staining. […] The degree of antagonism, additivity, or synergy was determined over a range of drug concentrations, and combination response curves were fit to assess the antiviral effects of the drug treatment combinations. The concentration ratios were analyzed using the method of Chou (Chou, Ting-Chao, and Rideout (Editors), (1991) Synergism and Antagonism in Chemotherapy, P. 61–101, Academic Press, New York). Tables 8 and 9 report the estimated EC50 values for the compounds tested, as well as the combination indices (CI). All estimates were computed using SAS Proc NLIN, and a two-parameter logistic. All combination indices were tested for departure from additivity using isobologram methods. Asymptotic confidence intervals were also calculated for each of the combination indices. These intervals are used to test for departure from additivity by comparing the bounds to one—a lower bound of the interval greater than 1 indicates antagonism, an upper bound of less than 1 indicates synergism, and a value of 1 contained in the interval indicates additivity.\nCompound 28 was also tested in 3-drug combination experiments with the NS5A inhibitor and the NS5B inhibitor (Table 12). The starting concentrations for the mono-therapies consisted of a 0.667 μM solution of the NS5A inhibitor, a 0.3 μM solution of compound 28, and a 2.5 μM solution of the NS5B inhibitor. The starting concentration for the triple combination contained a mixture of ⅓ of each of the above concentrations. Dose response curves for all three mono-therapies and the triple combination therapy were obtained using 3-fold dilutions, and data analysis was carried out as described above for combination index experiments."}, "HCV": {"system": "HCV", "conditions": "cited from earlier work"}}, "data": [{"molecule": "CCOC(=O)[C@@]12C[C@H]1C=CCCCSC[C@@H](NC(=O)OC(C)(C)C)C(=O)N1C[C@H](Oc3nccc4cc(OC)ccc34)C[C@H]1C(=O)N2", "values": [{"measurement": "ring closure, yield of all isomers", "setting": "[1]", "value": 73, "unit": "%"}]}, {"molecule": "COc1ccc2c(O[C@@H]3C[C@H]4C(=O)N[C@]5(C(=O)O)C[C@H]5/C=C\\COCC[C@H](NC(=O)OC(C)(C)C)C(=O)N4C3)nccc2c1", "note": "[Compound 140]", "values": [{"measurement": "IC50", "setting": "[2]", "value": "5000 to 50000", "unit": "nM"}]}, {"molecule": "O=C(Nc1ccc(C2S/C(=N\\c3ccc(N4CCOCC4)cc3)N(Cc3cccnc3)C2=O)cc1)[C@@H]1CCCN1C(=O)CCc1ccccc1", "note": "(stereo partly shown) [NS5A inhibitor, reference compound]", "values": [{"measurement": "EC50", "setting": "HCV replicon [3]", "value": 8, "unit": "nM"}, {"measurement": "EC50", "setting": "HCV replicon [4]; Hepatitis C virus", "value": 5, "unit": "nM"}, {"measurement": "EC50", "setting": "HCV replicon [4]", "value": 9, "unit": "nM"}]}, {"molecule": "pegylated alpha-interferon", "values": [{"measurement": "efficacy as monotherapy compared with unmodified alpha-interferon", "setting": "HCV; clinical results, monotherapy", "value": "superior to unmodified alpha-interferon"}]}, {"molecule": "alpha-interferon and ribavirin [reference compound]", "values": [{"measurement": "sustained efficacy", "setting": "HCV; HCV patients", "value": "40 % of patients"}]}]}
